Test [1] concerns the target Angiotensin I Converting Enzyme (ACE) (Homo sapiens, UniProt P12821). To be noted: literature (Kohmura 1990; Nakamura 1995); read-out: IC50, the concentration which results in 50% inhibition of the ACE activity; cited from earlier work.
A further test has as its target ACE (Homo sapiens, UniProt P12821). Description: ACE inhibition activity assay with fluorogenic substrate Abz-FRK(Dnp)P-OH. It counts as biochemical. To be noted: standard, 5 μM end-concentration.

Chain of Angiotensin I Converting Enzyme (ACE) (P12821 30-1306, species assumed): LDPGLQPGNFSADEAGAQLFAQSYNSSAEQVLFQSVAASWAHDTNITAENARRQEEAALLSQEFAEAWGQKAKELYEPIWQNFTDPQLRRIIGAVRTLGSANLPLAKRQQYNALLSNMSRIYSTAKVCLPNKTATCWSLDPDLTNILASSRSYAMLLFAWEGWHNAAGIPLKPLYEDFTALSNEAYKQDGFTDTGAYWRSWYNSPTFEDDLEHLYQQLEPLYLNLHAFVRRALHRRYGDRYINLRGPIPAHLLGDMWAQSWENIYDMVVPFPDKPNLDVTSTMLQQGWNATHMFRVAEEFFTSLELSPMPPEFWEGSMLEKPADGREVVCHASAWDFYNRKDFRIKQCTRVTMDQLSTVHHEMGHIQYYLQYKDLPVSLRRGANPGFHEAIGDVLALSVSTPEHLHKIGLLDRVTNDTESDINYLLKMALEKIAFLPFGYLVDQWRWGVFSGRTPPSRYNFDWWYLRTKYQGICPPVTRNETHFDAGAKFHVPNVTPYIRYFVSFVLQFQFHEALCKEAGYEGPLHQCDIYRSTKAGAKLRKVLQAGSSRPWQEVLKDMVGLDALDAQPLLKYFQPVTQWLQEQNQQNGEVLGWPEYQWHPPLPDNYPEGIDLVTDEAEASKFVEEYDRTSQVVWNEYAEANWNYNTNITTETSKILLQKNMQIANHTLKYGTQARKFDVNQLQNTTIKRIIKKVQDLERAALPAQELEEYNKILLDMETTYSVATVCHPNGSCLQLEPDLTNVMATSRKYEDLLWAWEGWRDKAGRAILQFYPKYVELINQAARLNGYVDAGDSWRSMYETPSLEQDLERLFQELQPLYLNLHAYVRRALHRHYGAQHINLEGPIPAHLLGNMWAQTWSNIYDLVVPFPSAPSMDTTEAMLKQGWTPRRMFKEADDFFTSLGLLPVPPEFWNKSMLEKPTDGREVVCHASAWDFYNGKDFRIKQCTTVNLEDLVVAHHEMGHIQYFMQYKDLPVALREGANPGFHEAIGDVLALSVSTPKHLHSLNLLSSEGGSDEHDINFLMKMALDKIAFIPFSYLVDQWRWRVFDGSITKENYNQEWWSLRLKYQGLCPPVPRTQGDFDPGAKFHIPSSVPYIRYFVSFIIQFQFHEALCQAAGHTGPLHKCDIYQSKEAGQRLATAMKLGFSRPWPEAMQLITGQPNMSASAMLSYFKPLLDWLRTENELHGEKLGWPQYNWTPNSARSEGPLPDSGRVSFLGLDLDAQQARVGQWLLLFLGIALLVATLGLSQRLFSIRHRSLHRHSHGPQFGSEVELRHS
Chain of ACE (P12821 30-1306, species assumed): as above

For Ile-Pro-Pro [IPP], the IC50 in test [1] is 5 µM. The “inhibition of the ACE activity” value against ACE is recorded as “about 30%”.

In the case of Val-Pro-Pro [VPP], in test [1], the IC50 is 9 µM.

The record behind these values is patent US20060246178A1, “Fermented milk product comprising tripeptide vpp and/or ipp” (priority 2003, published 2006).
